Experimental data published in US20240208992A1, “MACROCYCLES AS CFTR MODULATORS” (Idorsia Pharmaceuticals Ltd, priority 2021, published 2024).
pEC50: −log10 of the molar value.

Target: human F508del-CFTR (Homo sapiens, UniProt P13569, DEL508-508)
Assay: F508del-CFTR cell surface expression (corrector activity), DiscoveRx ß-galactosidase complementation chemiluminescence assay in recombinant U2OS cell line;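 also: U2OS cells co-expressing ProLink-tagged F508del-CFTR and a membrane-anchored enzyme acceptor, where more surface CFTR restores β-galactosidase activity measured by chemiluminescence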
Details: for pEC50: EC50, F508del-CFTR cell surface expression; for Emax: U2OS
[1] = U2OS cell line, 16h compound incubation, geomean values
[2] = in relation to the Emax of the corrector lumacaftor (=100%), U2OS cell line, 16h compound incubation, arithmetic mean values
[3] = U2OS cells, 16h compound incubation, geomean values
[4] = in relation to Emax of corrector lumacaftor (=100%), arithmetic mean values

Sequence of human F508del-CFTR (P13569 with tags, fused parts or gaps DEL508-508): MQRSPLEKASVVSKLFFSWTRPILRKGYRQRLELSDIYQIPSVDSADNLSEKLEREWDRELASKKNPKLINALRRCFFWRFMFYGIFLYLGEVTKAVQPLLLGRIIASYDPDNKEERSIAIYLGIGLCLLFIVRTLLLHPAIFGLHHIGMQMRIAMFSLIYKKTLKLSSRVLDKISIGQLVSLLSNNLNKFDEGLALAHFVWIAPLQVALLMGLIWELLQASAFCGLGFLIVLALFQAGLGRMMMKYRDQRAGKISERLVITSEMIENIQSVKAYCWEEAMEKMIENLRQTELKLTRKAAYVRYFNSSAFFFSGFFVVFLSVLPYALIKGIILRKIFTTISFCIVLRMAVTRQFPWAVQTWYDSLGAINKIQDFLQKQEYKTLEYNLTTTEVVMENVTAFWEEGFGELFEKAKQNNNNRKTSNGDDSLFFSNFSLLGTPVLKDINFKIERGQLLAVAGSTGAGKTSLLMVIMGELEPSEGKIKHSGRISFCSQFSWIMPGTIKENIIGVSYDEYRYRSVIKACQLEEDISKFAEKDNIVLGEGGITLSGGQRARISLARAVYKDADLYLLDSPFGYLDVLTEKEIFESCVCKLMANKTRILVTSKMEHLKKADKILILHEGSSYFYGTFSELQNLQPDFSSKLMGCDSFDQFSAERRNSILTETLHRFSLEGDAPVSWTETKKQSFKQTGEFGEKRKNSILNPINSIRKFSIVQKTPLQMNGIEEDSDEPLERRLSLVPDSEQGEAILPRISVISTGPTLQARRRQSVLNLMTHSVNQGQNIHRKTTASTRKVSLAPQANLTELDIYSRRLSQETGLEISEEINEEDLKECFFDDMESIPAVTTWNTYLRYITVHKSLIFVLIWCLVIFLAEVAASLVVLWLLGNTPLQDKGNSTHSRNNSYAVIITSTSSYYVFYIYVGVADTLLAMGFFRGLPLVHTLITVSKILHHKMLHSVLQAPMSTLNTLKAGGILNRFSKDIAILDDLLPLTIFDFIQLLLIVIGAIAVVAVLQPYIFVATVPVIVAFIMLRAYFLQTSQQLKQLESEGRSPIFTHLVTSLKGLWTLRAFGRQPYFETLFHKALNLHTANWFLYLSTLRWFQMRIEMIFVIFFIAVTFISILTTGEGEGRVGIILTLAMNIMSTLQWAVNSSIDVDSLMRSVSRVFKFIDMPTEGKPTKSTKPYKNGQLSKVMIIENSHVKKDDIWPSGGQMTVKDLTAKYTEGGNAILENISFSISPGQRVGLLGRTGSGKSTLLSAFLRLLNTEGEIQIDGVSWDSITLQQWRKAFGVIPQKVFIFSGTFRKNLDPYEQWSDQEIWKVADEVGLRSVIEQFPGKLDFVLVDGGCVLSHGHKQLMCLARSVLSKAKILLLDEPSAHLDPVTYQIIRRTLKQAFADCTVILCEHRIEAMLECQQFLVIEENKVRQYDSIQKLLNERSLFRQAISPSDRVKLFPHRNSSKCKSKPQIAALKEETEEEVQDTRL

COc1cccc(CCNC(=O)[C@@H]2CC(=O)N(C)[C@@H](CC(C)C)C(=O)N3CCCC[C@@H]3C(=O)N[C@H](Cc3ccccc3)COc3ccc4ncn(C)c4c3C(=O)N2)c1 [Example 17, (8S,12S,18aR,21R)-21-benzyl-12-isobutyl-N-(3-methoxyphenethyl)-5,11-dimethyl-6,10,13,19-tetraoxo-6,7,8,9,10,11,12,13,16,17,18,18a,19,20,21,22-hexadecahydro-5H,15H-imidazo[4′,5′:5,6]benzo[1,2-p]pyrido[2,1-f][1]oxa[4,7,10,14]tetraazacycloheptadecine-8-carboxamide]
pEC50 [1]: 6.33 | Emax [2]: 180%

CC(C)C[C@H]1C(=O)N2CCCC[C@@H]2C(=O)N[C@H](Cc2ccccc2)COc2ccc3ncccc3c2C(=O)N[C@H](C(=O)NCCc2ccc(-n3nccn3)cc2)CC(=O)N1C [Example 472, (9S,13S,19aR,22R)-N-(4-(2H-1,2,3-triazol-2-yl)phenethyl)-22-benzyl-13-isobutyl-12-methyl-7,11,14,20-tetraoxo-7,8,9,10,11,12,13,14,17,18,19,19a,20,21,22,23-hexadecahydro-16H-pyrido[2′,1′:6,7][1]oxa[4,7,10,14]tetraazacycloheptadecino[16,17-f]quinoline-9-carboxamide]
pEC50 [3]: 6.55 | Emax [4]: 239%

COc1cccc2c1C(=O)N[C@H](C(=O)NCCc1ccc3c(c1)OCCCC3)CC(=O)N(C)[C@@H](CC(C)C)C(=O)N1CCOC[C@@H]1C(=O)N[C@H](Cc1ccccc1)CO2 [Example 260, (7S,11S,20R,22aR)-20-benzyl-7-isobutyl-14-methoxy-8-methyl-6,9,13,22-tetraoxo-N-(2-(2,3,4,5-tetrahydrobenzo[b]oxepin-8-yl)ethyl)-1,3,4,6,7,8,9,10,11,12,13,19,20,21,22,22a-hexadecahydrobenzo[p][1,4]oxazino[3,4-f][1]oxa[4,7,10,14]tetraazacycloheptadecine-11-carboxamide]
pEC50 [1]: 6.11 | Emax [2]: 243%

CC(C)C[C@H]1C(=O)N(C)C2(CC(F)(F)C2)C(=O)N[C@H](Cc2ccccc2)COc2cnc3ccc(F)cc3c2C(=O)N[C@H](C(=O)NCCc2nc(C3CC3)no2)CC(=O)N1C [Example 841, (3′S,7′S,13′R)-13′-benzyl-N-(2-(3-cyclopropyl-1,2,4-oxadiazol-5-yl)ethyl)-3,3,20′-trifluoro-7′-isobutyl-6′,9′-dimethyl-1′,5′,8′,11′-tetraoxo-2′,3′,4′,5′,6′,7′,8′,9′,11′,12′,13′,14′-dodecahydro-1′H-spiro[cyclobutane-1,10′-[1]oxa[4,7,10,14]tetraazacycloheptadecino[17,16-c]quinoline]-3′-carboxamide]
pEC50 (U2OS cells, 16h compound incubation, geomean of several measurements): 6.92 | Emax (in relation to the Emax of the corrector lumacaftor (=100%), U2OS cells, 16h compound incubation, arithmetic mean): 271%

COc1cc2c(cc1CCNC(=O)[C@@H]1CC(=O)N(C)[C@@H](CC(C)C)C(=O)N3CCOC[C@@H]3C(=O)N[C@H](Cc3ccccc3)COc3ccc4ccccc4c3C(=O)N1)OCCO2 [Example 35, (4aR,7R,18S,22S)-7-benzyl-22-isobutyl-N-(2-(7-methoxy-2,3-dihydrobenzo[b][1,4]dioxin-6-yl)ethyl)-21-methyl-5,16,20,23-tetraoxo-1,2,4,4a,5,6,7,8,16,17,18,19,20,21,22,23-hexadecahydronaphtho[1,2-p][1,4]oxazino[3,4-f][1]oxa[4,7,10,14]tetraazacycloheptadecine-18-carboxamide]
pEC50 [1]: 6.58 | Emax [2]: 109%

CC(C)C[C@H]1C(=O)N(C)C2(CCC2)C(=O)N[C@H](Cc2ccccc2)COc2cnc3ccc(F)cc3c2C(=O)N[C@H](C(=O)NCCc2noc(C3CC3)n2)CC(=O)N1C [Example 691, (3′S,7′S,13′R)-13′-benzyl-N-(2-(5-cyclopropyl-1,2,4-oxadiazol-3-yl)ethyl)-20′-fluoro-7′-isobutyl-6′,9′-dimethyl-1′,5′,8′,11′-tetraoxo-2′,3′,4′,5′,6′,7′,8′,9′,11′,12′,13′,14′-dodecahydro-1′H-spiro[cyclobutane-1,10′-[1]oxa[4,7,10,14]tetraazacycloheptadecino[17,16-c]quinoline]-3′-carboxamide]
pEC50 [3]: 6.70 | Emax [4]: 364%

CC(C)C[C@H]1C(=O)N(C)C2(CC2)C(=O)N[C@H](Cc2ccccc2)COc2cnc3ccc(F)cc3c2C(=O)N[C@H](C(=O)NCCc2cnn(C3CC3)c2)CC(=O)N1C [Example 139, (3′S,7′S,13′R)-13′-benzyl-N-(2-(1-cyclopropyl-1H-pyrazol-4-yl)ethyl)-20′-fluoro-7′-isobutyl-6′,9′-dimethyl-1′,5′,8′,11′-tetraoxo-2′,3′,4′,5′,6′,7′,8′,9′,11′,12′,13′,14′-dodecahydro-1′H-spiro[cyclopropane-1,10′-[1]oxa[4,7,10,14]tetraazacycloheptadecino[17,16-c]quinoline]-3′-carboxamide]
pEC50 [1]: 6.33 | Emax [2]: 381%

CC(C)C[C@H]1C(=O)N2CCCC[C@@H]2C(=O)N[C@H](Cc2ccccc2)COc2cnc3ccc(F)cc3c2C(=O)N[C@H](C(=O)NCCc2ccc(-n3nccn3)cc2)CC(=O)N1C [Example 481, (9S,13S,19aR,22R)-N-(4-(2H-1,2,3-triazol-2-yl)phenethyl)-22-benzyl-5-fluoro-13-isobutyl-12-methyl-7,11,14,20-tetraoxo-7,8,9,10,11,12,13,14,17,18,19,19a,20,21,22,23-hexadecahydro-16H-pyrido[2′,1′:6,7][1]oxa[4,7,10,14]tetraazacycloheptadecino[17,16-c]quinoline-9-carboxamide]
pEC50 [3]: 6.35 | Emax [4]: 225%

Cc1cc2c(cn1)C(=O)N[C@H](C(=O)NCCc1ccc3c(c1)OCO3)CC(=O)N(C)[C@@H](CC(C)C)C(=O)N(CCC1CCCCC1)CC(=O)N[C@H](Cc1ccccc1)CO2 [Example 270, (3R,9S,13S)-N-(2-(benzo[d][1,3]dioxol-5-yl)ethyl)-3-benzyl-7-(2-cyclohexylethyl)-9-isobutyl-10,18-dimethyl-5,8,11,15-tetraoxo-2,3,4,5,6,7,8,9,10,11,12,13,14,15-tetradecahydropyrido[3,4-p][1]oxa[4,7,10,14]tetraazacycloheptadecine-13-carboxamide]
pEC50 [1]: 6.37 | Emax [2]: 172%

CC(C)C[C@H]1C(=O)N2CCOC[C@@H]2C(=O)N[C@H](Cc2ccccc2)COc2cnc3ccccc3c2C(=O)N[C@H](C(=O)NCCc2ccc(Br)cc2)CC(=O)N1C [Example 49, (9S,13S,19aR,22R)-22-benzyl-N-(4-bromophenethyl)-13-isobutyl-12-methyl-7,11,14,20-tetraoxo-7,8,9,10,11,12,13,14,16,17,19,19a,20,21,22,23-hexadecahydro-[1,4]oxazino[3′,4′:6,7][1]oxa[4,7,10,14]tetraazacycloheptadecino[17,16-c]quinoline-9-carboxamide]
pEC50 [1]: 6.46 | Emax [2]: 136%

COc1cccc(CCNC(=O)[C@@H]2CC(=O)N(C)[C@@H](CC(C)C)C(=O)N(C)CC(=O)N[C@H](Cc3ccccc3)COc3ccc4ncc(F)cc4c3C(=O)N2)c1 [Example 507, (3S,7S,13R)-13-benzyl-20-fluoro-7-isobutyl-N-(3-methoxyphenethyl)-6,9-dimethyl-1,5,8,11-tetraoxo-1,2,3,4,5,6,7,8,9,10,11,12,13,14-tetradecahydro-[1]oxa[4,7,10,14]tetraazacycloheptadecino[16,17-f]quinoline-3-carboxamide]
pEC50 [3]: 6.33 | Emax [4]: 337%
